Reference: US10723705B2, “Heterocyclic compounds and uses thereof” (Incyte Corporation, priority 2015, dated 2020)
Where two headings read alike, the source gives them in different places.

Molecular target: Human recombinant Histone Deacetylase 8 (HDAC8) (Homo sapiens (Human), UniProt Q9BY41)
Test: HDAC8 Enzymatic Assay (HDAC-Glo I/II luminescence)
Format: biochemical
Protocol: HDAC-Glo™ I/II Assay Kit was purchased from Promega Corporation (Madison, Wis.), including the following components: HDAC-Glo I/II Buffer (25 mM Tris buffer, pH 8.0, supplemented with 137 mM: NaCl, 2.7 mM KCl, 1% v/v Triton X-100 and 1 mM: MgCl2), luminogenic substrates Boc-GAK(Ac)-aminoluciferin (HDAC-Glo I/II substrate), proprietary developer reagent (containing trypsin). Human recombinant Histone Deacetylase 8 (HDAC8) was purchased from Enzo Life Sciences (Plymouth Meeting, Pa.).
The HDAC8 reaction was performed at room temperature in white 384-well polystyrene, flat-bottom microtiter plate (Greiner Bio-one, Monroe, N.C.) in a final volume of 20 μL. Test compounds were first diluted serially in DMSO and 100 nL were transferred to the plate wells by Echo 550 (Labcyte, Sunnyvale, Calif.) before the addition of other reaction components. The final concentration of DMSO in the assay was 0.5%. The HDAC-Glo I/II assay reagent was prepared by rehydration of lyophilized HDAC-Glo I/II substrate in 10 mL. HDAC-Glo I/II assay buffer followed with the addition of 10 μL of developer reagent. 10 uL of 3 nM HDAC8 in the HDAC-Glo I/II assay buffer were first dispensed into the microliter plate containing the compounds and incubated at room temperature for 30 min. The reactions were initiated with the addition of 10 uL HDAC-Glo I/II assay reagent with Multidrop (Thermo, Waltham, Mass.). The final concentration of HDAC8 and HDAC-Glo I/II substrate in the reaction were 1.5 nM and 50 μM, respectively. The assay plate was mixed for 1 min by orbital shaking (500 rpm) and centrifuged for 1 min at 1500 rpm. After 15 min at room temperature, luminescence signals were measured on TopCount (Perkin Elmer). Wells with no compound served as the positive controls and wells containing no HDAC8 were used as negative controls. IC50 determination was performed by fitting the curve of percentage control activity versus the log of the compound concentration using the GraphPad Prism 6.0 software.

[1] = class symbols, Table 14, read-out: HDAC8 IC50

Sequence of Human recombinant Histone Deacetylase 8 (HDAC8) (Q9BY41 whole entry): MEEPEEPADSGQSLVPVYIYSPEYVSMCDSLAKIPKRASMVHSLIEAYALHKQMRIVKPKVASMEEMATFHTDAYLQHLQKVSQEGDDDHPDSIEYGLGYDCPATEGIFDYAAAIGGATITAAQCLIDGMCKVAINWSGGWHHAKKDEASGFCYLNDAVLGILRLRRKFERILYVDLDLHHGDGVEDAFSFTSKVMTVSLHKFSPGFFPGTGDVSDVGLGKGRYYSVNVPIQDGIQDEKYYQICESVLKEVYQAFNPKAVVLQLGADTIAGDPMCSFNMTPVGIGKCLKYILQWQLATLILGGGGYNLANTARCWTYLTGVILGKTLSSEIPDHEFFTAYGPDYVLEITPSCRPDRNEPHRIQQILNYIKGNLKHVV

Row | IC50 [1] [nM] | IC50 (HDAC8, read-out: IC50) [nM] | SMILES
1 | 50 to 200 | – | O=C(NO)C(Cc1ccccc1)n1ncc2c(-c3cncnc3)nccc21 (centres unmarked) [Compound I-0071, N-hydroxy-3-phenyl-2-(4-(pyrimidin-5-yl)-1H-pyrazolo[4,3-c]pyridin-1-yl)propanamide]
2 | 200 to 500 | – | O=C(NO)C(Cc1ccccc1)n1ncc2nc(-c3ccncc3)ccc21 (centres unmarked) [Compound I-0073, N-hydroxy-3-phenyl-2-(5-(pyridin-4-yl)-1H-pyrazolo[4,3-b]pyridin-1-yl)propanamide]
3 | 50 to 200 | – | O=C(NO)C(Cc1ccccc1)n1ncc2nc(-c3cncnc3)ccc21 (centres unmarked) [Compound I-0074, N-hydroxy-3-phenyl-2-(5-(pyrimidin-5-yl)-1H-pyrazolo[4,3-b]pyridin-1-yl)propanamide]
4 | 200 to 500 | – | Cc1ccc2c(cnn2C(Cc2ccccc2)C(=O)NO)n1 (centres unmarked) [Compound I-0075, N-hydroxy-2-(5-methyl-1H-pyrazolo[4,3-b]pyridin-1-yl)-3-phenylpropanamide]
5 | > 500 | – | Cc1cccc2cn(C(Cc3ccccc3)C(=O)NO)nc12 (centres unmarked) [Compound I-0078, N-hydroxy-2-(7-methyl-2H-indazol-2-yl)-3-phenylpropanamide]
6 | > 500 | – | NC(=O)c1ccc(-c2cccc3c2cnn3C(Cc2ccccc2)C(=O)NO)cc1 (centres unmarked) [Compound I-0080, 4-(1-(1-(hydroxyamino)-1-oxo-3-phenylpropan-2-yl)-1H-indazol-4-yl)benzamide]
7 | 50 to 200 | – | O=C(NO)C(Cc1ccccc1)n1ncc2c(-c3cncnc3)cccc21 (centres unmarked) [Compound I-0081, N-hydroxy-3-phenyl-2-(4-(pyrimidin-5-yl)-1H-indazol-1-yl)propanamide]
8 | > 500 | – | Cc1cccc2c1cnn2C(Cc1ccccc1)C(=O)NO (centres unmarked) [Compound I-0084, N-hydroxy-2-(4-methyl-1H-indazol-1-yl)-3-phenylpropanamide]
9 | > 500 | – | O=C(NO)C(Cc1ccccc1)n1ncc2cc(-c3ccccc3)ncc21 (centres unmarked) [Compound I-0086, N-hydroxy-3-phenyl-2-(5-phenyl-1H-pyrazolo[3,4-c]pyridin-1-yl)propanamide]
10 | 200 to 500 | – | Cn1nccc1-c1cc2cnn(C(Cc3ccccc3)C(=O)NO)c2cn1 (centres unmarked) [Compound I-0090, N-hydroxy-2-(5-(1-methyl-1H-pyrazol-5-yl)-1H-pyrazolo[3,4-c]pyridin-1-yl)-3-phenylpropanamide]
11 | 200 to 500 | – | O=C(NO)C(Cc1ccccc1)n1ncc2cc(-c3cncnc3)ncc21 (centres unmarked) [Compound I-0092, N-hydroxy-3-phenyl-2-(5-(pyrimidin-5-yl)-1H-pyrazolo[3,4-c]pyridin-1-yl)propanamide]
12 | 200 to 500 | – | COc1ncc(-c2cc3cnn(C(Cc4ccccc4)C(=O)NO)c3cn2)cn1 (centres unmarked) [Compound I-0094, N-hydroxy-2-(5-(2-methoxypyrimidin-5-yl)-1H-pyrazolo[3,4-c]pyridin-1-yl)-3-phenylpropanamide]
13 | 200 to 500 | – | O=C(NO)C(Cc1ccccc1)n1ncc2cc(-c3cccnc3)ncc21 (centres unmarked) [Compound I-0095, N-hydroxy-3-phenyl-2-(5-(pyridin-3-yl)-1H-pyrazolo[3,4-c]pyridin-1-yl)propanamide]
14 | > 500 | – | COc1ccc(-c2cc3cnn(C(Cc4ccccc4)C(=O)NO)c3cn2)cn1 (centres unmarked) [Compound I-0096, N-hydroxy-2-(5-(6-methoxypyridin-3-yl)-1H-pyrazolo[3,4-c]pyridin-1-yl)-3-phenylpropanamide]
15 | > 500 | – | O=C(NO)C(Cc1ccccc1)n1ncc2cc(-c3ccncc3)ncc21 (centres unmarked) [Compound I-0097, N-hydroxy-3-phenyl-2-(5-(pyridin-4-yl)-1H-pyrazolo[3,4-c]pyridin-1-yl)propanamide]
16 | > 500 | – | O=C(NO)C(Cc1ccccc1)n1cc2cc(Br)ncc2n1 (centres unmarked) [Compound I-0100, 2-(5-bromo-2H-pyrazolo[3,4-c]pyridine-2-yl)-N-hydroxy-3-phenylpropanamide]

The next lines start with the compound.

Row | SMILES | IC50 [1] [nM] | IC50 (HDAC8, read-out: IC50) [nM]
17 | Cn1nccc1-c1ccc2c(cnn2C(Cc2ccccc2)C(=O)NO)n1 (centres unmarked) [Compound I-0072, N-hydroxy-2-(5-(1-methyl-1H-pyrazol-5-yl)-1H-pyrazolo[4,3-b]pyridin-1-yl)-3-phenylpropanamide] | 200 to 500 | –
18 | O=C(NO)C(Cc1ccccc1)n1ncc2nc(Cl)ccc21 (centres unmarked) [Compound I-0076, 2-(5-chloro-1H-pyrazolo[4,3-b]pyridin-1-yl)-N-hydroxy-3-phenylpropanamide] | 50 to 200 | –
19 | O=C(NO)C(Cc1ccccc1)n1cc2nc(Cl)ccc2n1 (centres unmarked) [Compound I-0077, 2-(5-chloro-2H-pyrazolo[4,3-b]pyridin-2-yl)-N-hydroxy-3-phenylpropanamide] | > 500 | –
20 | O=C(NO)C(Cc1ccccc1)n1ncc2c(-c3ccccc3)cccc21 (centres unmarked) [Compound I-0079, N-hydroxy-3-phenyl-2-(4-phenyl-1H-indazol-1-yl)propanamide] | > 500 | –
21 | O=C(NO)C(Cc1ccccc1)n1cc2cccc(C#CC3CC3)c2n1 (centres unmarked) [Compound I-0082, 2-(7-(Cyclopropylethynyl)-2H-indazol-2-yl)-N-hydroxy-3-phenylpropanamide] | 200 to 500 | –
22 | Cn1nccc1-c1cccc2c1cnn2C(Cc1ccccc1)C(=O)NO (centres unmarked) [Compound I-0083, N-hydroxy-2-(4-(1-methyl-1H-pyrazol-5-yl)-1H-indazol-1-yl)-3-phenylpropanamide] | 50 to 200 | –
23 | CN1CC=C(c2cccc3c2cnn3C(Cc2ccccc2)C(=O)NO)CC1 (centres unmarked) [Compound I-0085, N-hydroxy-2-(4-(1-methyl-1,2,3,6-tetrahydropyridin-4-yl)-1H-indazol-1-yl)-3-phenylpropanamide] | 200 to 500 | –
24 | O=C(NO)C(Cc1ccccc1)n1ncc2cc(-c3c(F)cccc3F)ncc21 (centres unmarked) [Compound I-0087, 2-(5-(2,6-difluorophenyl)-1H-pyrazolo[3,4-c]pyridin-1-yl)-N-hydroxy-3-phenylpropanamide] | > 500 | –
25 | N#Cc1ccc(-c2cc3cnn(C(Cc4ccccc4)C(=O)NO)c3cn2)cc1 (centres unmarked) [Compound I-0088, 2-(5-(4-cyanophenyl)-1H-pyrazolo[3,4-c]pyridin-1-yl)-N-hydroxy-3-phenylpropanamide] | > 500 | –
26 | NC(=O)c1ccc(-c2cc3cnn(C(Cc4ccccc4)C(=O)NO)c3cn2)cc1 (centres unmarked) [Compound I-0089, 4-(1-(1-(hydroxyamino)-1-oxo-3-phenylpropan-2-yl)-1H-pyrazolo[3,4-c]pyridin-5-yl)benzamide] | 200 to 500 | –
27 | Cn1cc(-c2cc3cnn(C(Cc4ccccc4)C(=O)NO)c3cn2)cn1 (centres unmarked) [Compound I-0091, N-hydroxy-2-(5-(1-methyl-1H-pyrazol-4-yl)-1H-pyrazolo[3,4-c]pyridin-1-yl)-3-phenylpropanamide] | > 500 | –
28 | O=C(NO)C(Cc1ccccc1)c1cnc2cc(Cl)ccn12 (centres unmarked) [Compound I-0093, 2-(7-Chloroimidazo[1,2-a]pyridin-3-yl)-N-hydroxy-3-phenylpropanamide] | ≤ 50 | 22
29 | O=C(NO)C(Cc1ccccc1)n1ncc2cc(C3CC3)ncc21 (centres unmarked) [Compound I-0098, 2-(5-cyclopropyl-1H-pyrazolo[3,4-c]pyridin-1-yl)-N-hydroxy-3-phenylpropanamide] | > 500 | –
30 | O=C(NO)C(Cc1ccccc1)n1ncc2cc(Br)ncc21 (centres unmarked) [Compound I-0099, 2-(5-bromo-1H-pyrazolo[3,4-c]pyridin-1-yl)-N-hydroxy-3-phenylpropanamide] | > 500 | –
31 | CN1CC=C(c2cccc3cn(C(Cc4ccccc4)C(=O)NO)nc23)CC1 (centres unmarked) [Compound I-0101, N-hydroxy-2-(7-(1-methyl-1,2,3,6-tetrahydropyridin-4-yl)-2H-indazol-2-yl)-3-phenylpropanamide] | > 500 | –
